Data on two compounds can be found in patent US20030175964A1, “Use of eicosanoids for tissue engineering” (Kantonsspital Basel, priority 2000, published 2003).

In one assay the test system is human chondrocytes. Briefly: Redifferentiation of expanded human chondrocytes in pellet culture, real-time quantitative PCR of differentiation indexes. The assay is classed as cell-based. The method, then:
Human articular cartilage samples were collected from the hip of 3 patients with no history of joint disease, undergoing joint replacement, following femoral neck fracture.
The cartilage samples were harvested aseptically and digested with 0.15% type II collagenase for 22 hours to isolate primary chondrocytes. The cells were washed and resuspended in Dulbecco's modified Eagles medium (DMEM) supplemented with 10% fetal bovine serum, 4′500 mg/l D-Glucose, nonessential amino acids, 1 mM sodium pyruvate, 100 mM HEPES buffer, 100 U/ml penicillin, 100 μg/ml streptomycin, and 0.29 mg/ml L-glutamine (control medium, CTR). Chondrocytes were seeded into tissue culture flasks at approximately 10^4 cells/cm^2 and cultured in a humidified 37° C./5% CO^2 incubator.
After approximately 10 days, when the cells were confluent, first passage cells (P1) were detached using 0.25% trypsin/1 mM EDTA and replated at 5×10^3 cells/cm^2. After one more week, when the cells reached again confluency, second passage (P2) cells were trypsinised and cultured in pellets. Throughout the expansion phase, cells were cultured in control medium, with or without the addition of 5 ng/ml of Fibroblast Growth Factor-2 (FGF-2).
The cells were suspended at 5×10^5 cells/0.5 ml of serum-free medium (SF) consisting of DMEM supplemented with ITS+1 (containing 10 μg/ml insulin, 5.5 μg/ml transferrin, 5 ng/ml selenium, 0.5 mg/ml bovine serum albumin, 4.7 μg/ml linoleic acid), 0.1 mM ascorbic-acid 2-Phosphate, and 1.25 μg/ml human serum albumin. This suspension was centrifuged at less than 8000 rpm for 15 seconds in polypropylene conical tubes to form spherical pellets which were then statically incubated in a humidified 37° C./5% CO^2 incubator for 24 hours. […]
P, alone or in combination with A and/or D and/or H and/or T, was supplemented to the SF medium during 3D culture of the human chondrocyte cell pellets. After two weeks, the differentiation indexes (CII/CI and Agg/Ver) were assessed. […]
Further, for each primary culture, 2 pellets were formed per experimental group and assessed histologically and for quantitative PCR as described below.
Theoretical Basis. Real-time quantitative PCR monitors the degradation of a sequence-specific, dual-labeled fluorescent probe after each cycle of PCR amplification. […] After subtraction of the background fluorescence, calculated during the first 15 amplification cycles, the measured fluorescence is graphed as an amplification plot. […] The Ct value is correlated to input target mRNA amount: a larger starting quantity of mRNA target results in a lower number of PCR cycles required for the reporter fluorescent emission to reach the threshold, and therefore a lower Ct value. […]

The next assay relates to chondrocytes. To be noted: cited from earlier work.
[1] abbreviates: SF medium supplemented with P, 1 μg/ml, two weeks, vs control culture.

As to `CCCCC[C@H](O)/C=C/[C@H]1[C@H](O)CC(=O)[C@@H]1C/C=C\CCCC(=O)O` [P, prostaglandin E2], in the assay on human chondrocytes (setting [1]), the “Agg/Ver differentiation index, increase compared to the control culture” value was “at least 2 orders of magnitude” and the “CII/CI differentiation index, increase compared to the control culture” value is listed as “at least 2 orders of magnitude”. For the same compound, the “effects on differentiation indexes and CI mRNA on chondrocytes expanded with FGF-2” value in the assay on human chondrocytes (chondrocytes expanded with 5 ng/ml FGF-2, compared with those expanded without FGF-2) is “comparable”. Further, in the assay with human chondrocytes (pellets, SF medium supplemented with P), the “expression of CI (collagen type I) mRNA” value is on record as “decrease”.
Regarding “FGF-2: fibroblast growth factor-2, growth factor added during monolayer expansion of chondrocytes”, the “cartilaginous tissue formed after seeding onto three-dimensional polymer scaffolds” value in the assay with chondrocytes (chondrocytes expanded in the presence of FGF-2, versus freshly isolated (primary) chondrocytes) is “histologically and biochemically comparable to that obtain using freshly isolated chondrocytes”. For the same compound, in the assay on chondrocytes (monolayer expansion in the presence of FGF-2), the “formation of thick F-actin structures during monolayer expansion” value is reported as “inhibits”.
